The numbers were not newly measured in paper PMC11859340, “The Therapeutic Potential of Spirooxindoles in Cancer: A Focus on p53–MDM2 Modulation” (Pharmaceuticals, 2025), which cites them from elsewhere.

Like-named read-outs stand apart in the source and are kept apart here.

In one data set the test system is SW620 (mutant p53). The arrangement: method as in PMID 24268795. The following applies: read-out: GI50 against SW620.
The subject of data set [1] is HCT116 (p53^−/−). Also noted: method as in PMID 24268795. The following applies: read-out: GI50 against HCT116 (p53^−/−).
Data set [2] relates to HepG2 (hepatocellular wild p53 type). Also noted: method as in PMID 24268795. The conditions noted are these: read-out: GI50 against HepG2.
Data set [3] deals with HCT116 (p53^+/+). The arrangement: method as in PMID 24268795. The conditions noted are these: read-out: GI50 against HCT116 (p53^+/+).
Data set [4] relates to MDM2. The arrangement: method as in PMID 29210587. The conditions noted are these: at 20 μM, HTRF method. On the technique in general: TR-FRET usually uses a lanthanide donor and a delayed reading to cut background.
The subject of another data set is MCF7. The arrangement: method as in PMID 29210587. The following applies: at 20 μM, MTT.
The subject of the next data set is ZR-75-1 (wild-type p53). The arrangement: method as in PMID 29210587. The following applies: at 20 μM, MTT.
For data set [5], the system named is BT-474 (mutated-type p53). Also noted: method as in PMID 29210587. The following applies: at 20 μM, MTT.
Another data set has as its system MCF 10A. The arrangement: method as in PMID 37731691. The following applies: MTT; read-out: IC50 against MCF 10A.
A further data set deals with MCF7 “wild p53”. The arrangement: method as in PMID 37731691. The conditions noted are these: MTT; read-out: IC50 against MCF7.
Another data set relates to MDA-MB-231 “mutant p53”. Also noted: method as in PMID 37731691. The following applies: MTT; read-out: IC50 against MDA-MB-231.
In data set [6] the test system is HepG2 (liver, wild p53 type). The arrangement: method as in doi:10.1039/C5MD00450K. The following applies: read-out: GI50 against HepG2.
The subject of data set [7] is HCT116 (p53^+/+). Also noted: method as in doi:10.1039/C5MD00450K. The conditions noted are these: read-out: GI50 against HCT116 (p53^+/+).
Data set [8] deals with SW620 (colon, mutant p53). Also noted: method as in doi:10.1039/C5MD00450K. The following applies: read-out: GI50 against SW620.
Data set [9] relates to HCT116 (p53^−/−). The arrangement: method as in doi:10.1039/C5MD00450K. The conditions noted are these: read-out: GI50 against HCT116 (p53^−/−).
In a further data set the test system is colon HCT116. Also noted: method as in PMID 31047751. The following applies: CCK-8.
Another data set deals with lung A549. The arrangement: method as in PMID 31047751. The following applies: CCK-8.
A further data set concerns breast MCF7. Also noted: method as in PMID 31047751. The following applies: CCK-8.
Data set [10] addresses MDM2. The arrangement: method as in PMID 31047751. The following applies: fluorescence polarization assay; read-out: Ki, MDM2 inhibitory effect. In general terms: In fluorescence polarisation assays a small probe gives low polarisation when free and higher when bound to something large.
Data set [11] deals with HEK293T (embryonic kidney). The arrangement: method as in doi:10.1080/10426507.2020.1723590. The conditions noted are these: MTT; read-out: IC50 against HEK293T.
For another data set, the system named is PC-3 (prostate). The arrangement: method as in PMID 30802707. The conditions noted are these: MTT; read-out: IC50 against PC-3.
In a further data set the test system is A549 “lung”. The arrangement: method as in PMID 28027532. The following applies: MTT; read-out: IC50 against A549.
In the next data set the test system is VERO-B (normal) cells. The conditions noted are these: read-out: IC50 against VERO-B; MTT, normal cells.
Details of data set [12]: method as in PMID 30508794. The conditions noted are these: MTT; read-out: IC50 against PC3.
The next data set concerns HeLa (cervical). The arrangement: method as in PMID 37935912. The conditions noted are these: SRB; read-out: IC50 against HeLa.
Another data set concerns H1975 “lung”. Also noted: method as in PMID 28027532. The conditions noted are these: MTT; read-out: IC50 against H1975.
For the next data set, the system named is A549 (lung). The arrangement: method as in doi:10.1080/10426507.2020.1723590. The conditions noted are these: MTT; read-out: IC50 against A549.
Data set [13] has as its system HCT116 (colon). The arrangement: method as in PMID 30508794. The conditions noted are these: MTT; read-out: IC50 against HCT116.
A further data set has as its system CT26. The arrangement: method as in PMID 28027532. The conditions noted are these: MTT; read-out: IC50 against CT26.
In another data set the test system is HCT116 “colon”. Also noted: method as in PMID 28027532. The conditions noted are these: MTT; read-out: IC50 against HCT116.
Data set [14] concerns HepG2 (liver). The arrangement: method as in PMID 30802707. The conditions noted are these: MTT; read-out: IC50 against HepG2.
The next data set has as its system A2870T “ovarian”. The arrangement: method as in PMID 28027532. The following applies: MTT; read-out: IC50 against A2870T.
Data set [15] has as its system HepG2 (liver). Also noted: method as in PMID 30508794. The following applies: MTT; read-out: IC50 against HepG2.
A further data set deals with A2870s. The arrangement: method as in PMID 28027532. The conditions noted are these: MTT; read-out: IC50 against A2870s.
For the next data set, the system named is MCF7 “breast”. Also noted: method as in PMID 28027532. The conditions noted are these: MTT; read-out: IC50 against MCF7.
Data set [16] has as its system HCT116 (colon). Also noted: method as in PMID 30802707. The following applies: MTT; read-out: IC50 against HCT116.
For data set [17], the system named is transplanted cancer (lung cancer). The arrangement: method as in PMID 32738990. The conditions noted are these: 100, 200, 400 mg/kg.

With `Cc1ccc(C2=NO[C@@]3(C(=O)Nc4cc(Cl)ccc43)[C@@H]2c2ccccc2)cc1`, the GI50 was 31.6 ± 1.05 µM in the data set with SW620 (mutant p53), 30.6 ± 1.12 µM in the data set with HCT116 (p53^−/−) [1], 29.1 ± 1.09 µM in [2] and 26.6 ± 1.07 µM with HCT116 (p53^+/+) [3].

In the case of `C[C@H]1CN(C(=O)OC(C)(C)C)[C@@]2(C(=O)Nc3cc(Cl)ccc32)[C@@H]([N+](=O)[O-])[C@@H]1c1ccc(Cl)cc1`, the “inhibitory activity against MDM2” value with MDM2 [4] is given as 84.86. The “% inhibition, MCF7” value with MCF7 is 93.03%. For the same compound, the “% inhibition, ZR-75-1” value with ZR-75-1 (wild-type p53) was 82.28%. The “% inhibition, BT-474” value in [5] is reported as 50.00%.

What is called IC50 is the point on the concentration scale where inhibition reaches its midpoint. Take `O=C1C=CC(OCc2cn(CCN3C(=O)[C@]4(c5ccc(Br)cc53)[C@@H](c3ccccc3)C(c3ccccc3)=NN4c3ccccc3)nn2)(c2cc(=O)c3c(O)cc(O)cc3o2)C=C1` [105 (X = (CH2)2)]: the IC50 with MCF 10A is 4.56 µM; with MCF7 “wild p53”, 2.92 µM; in the data set on MDA-MB-231 “mutant p53”, 1.08 µM.

`O=C1Nc2ccc(Br)cc2[C@]12ON=C(c1cccc(Cl)c1)N2c1cccc(Cl)c1` [110 (R^1 = 5-Br, R^2 = 3-Cl, R^3 = 3-Cl)]: the GI50 was 2.1 µM in data set [6], 2 µM with HCT116 (p53^+/+) [7], 2.1 ± 0.3 µM in data set [8] and 2.9 ± 0.2 µM in the data set on HCT116 (p53^−/−) [9].

As a reminder, the Ki is a measure of affinity in units of concentration, obtained from inhibition or displacement. Turning to `O=C(C1=CCC(c2ccc(Br)cc2)C2(S1)C(=O)Nc1ccccc12)c1ccccc1` (stereo not shown) [150 (R^1 = H, R^2 = Ph, R^3 = 4-BrC6H4)], the IC50 with colon HCT116 (read-out: IC50 against HCT116) is 1.7 µM; with lung A549 (read-out: IC50 against A549), 2.1 µM; in the data set on breast MCF7 (read-out: IC50 against MCF7), 6.8 µM. Further, in the data set with colon HCT116 (at 10 μM), the “% inhibition, HCT116” value is 91.9%. Further, the “% inhibition, A549” value in the data set on lung A549 (at 10 μM) is 75.1%. Also, the “% inhibition, MCF7” value in the data set with breast MCF7 (at 10 μM) was 69.4%. The Ki at MDM2 [10] was 43.8 µM.

With `N.N.[Cl][Pt][Cl]` [cisplatin, reference compound], the IC50 was 12.4 ± 3.9 µM in data set [11]; 5 ± 0.5 µM with PC-3 (prostate); 15.6 µM with A549 “lung”; 5 ± 0.2 µM in the data set on VERO-B (normal) cells; 5 ± 0.56 µM in data set [12]; 2 ± 0.3 µM in the data set with HeLa (cervical). Also, the 50% inhibitory concentration (IC50) in the data set with H1975 “lung” was 9.7 µM; in the data set with A549 (lung), 44.1 ± 3.9 µM; in the data set with HCT116 (colon) [13], 12.6 ± 0.5 µM; with CT26 it was 23.7 µM; in the data set with HCT116 “colon”, 17.4 µM; in the data set on HepG2 (liver) [14] it was 5.5 ± 1 µM. Also, the IC50 was 27.3 µM with A2870T “ovarian”; 5.5 ± 0.3 µM in the data set with HepG2 (liver) [15]; 20.9 µM in the data set with A2870s; 7.8 µM in the data set on MCF7 “breast”; 12.6 ± 2 µM in the data set with HCT116 (colon) [16].

Regarding `CN1C(=O)C2(C(C#N)=C(N)Oc3cc4oc(-c5ccccc5)cc(=O)c4c(O)c32)c2cc(Br)ccc21` (stereo not shown) [compound 128], the “transplanted cancer in mice” value in data set [17] is “Inhibition of transplanted cancer in mice”.
